Data taken from patent US20150051232A1, “USE OF (RS)-S-CYCLOPROPYL-S-(4--5-(TRIFLUOROMETHYL)PYRIMIDIN-2-YL]AMINO}PHENYL)SULFOXIMIDE FOR TREATING SPECIFIC TUMOURS” (Bayer Intellectual Property GmbH, priority 2012, published 2015).

Columns and labels:
Type in all cases: in vivo, humans
[1] = test system: squamous cell carcinoma of the oesophagus; test: Clinical trial in a patient with squamous cell carcinomas of the oesophagus; conditions: 28 days of treatment and 14 days of non-treatment
Method: Patient 3002, squamous cell carcinoma of the oesophagus stage IV, progressive disease on study enrollment, systemic pre-therapy with cisplatin and Xeloda
Oral solution, ingredients micronized BAY 1000394 (0.2 mg/ml), levomenthol (synonym: 1-menthol, flavouring) macrogol (400) (synonym: polyethylene glycol (400), solubilizer), polysorbate 20 (surfactant)
Dosage twice a day 0.5 mg, administration protocol 28 days of treatment and 14 days of non-treatment, long-term treatment until disease progression

[2] = test system: thyroid cancer; test: Clinical trial in patients with thyroid cancer
Method: Patient 2006, clinical study 14856, person, papillary thyroid cancer stage IV, progressive disease on study enrollment, systemic pre-therapies with 17-AAG, Sutent, sorafenib, erlotinib and temsirolimus
Patient 1030, clinical study 14484, person, thyroid cancer stage IV, progressive disease on study enrollment, systemic pre-therapies with Adriamycin and cisplatin/carboplatin, carboplatin and Taxol, Nexavar, Sutent
Patient 2006: oral solution, ingredients micronized BAY 1000394 (0.2 mg/ml), levomenthol (synonym: 1-menthol, flavouring) macrogol (400) (synonym: polyethylene glycol (400), solubilizer), polysorbate 20 (surfactant)
Patient 1030: tablet, ingredients BAY 1000394, micronized, 5 mg/tablet, granulated mannitol (filler), microcrystalline cellulose (filler), croscarmellose (disintegrant), magnesium stearate (additive for pressing), red lacquer (coating)
Patient 2006: dosage twice a day 0.3 mg, administration protocol 28 days of treatment and 14 days of non-treatment, long-term treatment until disease progression
Patient 1030: dosage 5 mg in the morning, 10 mg in the evening, administration protocol 3 days of treatment and 4 days of non-treatment, long-term treatment until disease progression

[3] = test system: cholangiocellular carcinoma; test: Clinical trial in a patient with cholangiocellular carcinoma; conditions: 3 days of treatment and 4 days of non-treatment
Method: Patient 1026, cholangiocellular carcinoma stage IV, progressive disease on study enrollment, systemic pre-therapies with cisplatin/oxaliplatin and Gemzar, 5-fluorouracil and folinic acid
tablet, ingredients BAY 1000394, micronized, 5 mg/tablet, granulated mannitol (filler), microcrystalline cellulose (filler), croscarmellose (disintegrant), magnesium stearate (additive for pressing), red lacquer (coating)
Dosage twice a day 5 mg, administration protocol 3 days of treatment and 4 days of non-treatment, long-term treatment until disease progression

[4] = test system: mesotheliomas; test: Clinical trial in patients with mesotheliomas; conditions: 3 days of treatment and 4 days of non-treatment; for duration of treatment (until disease progression) / tumour response according to RECIST 1.1: oral solution
Source text: Patient 1010, epithelioid mesothelioma, progressive disease on study enrollment, systemic pre-therapies with Alimta and cisplatin, gemcitabine, doxorubicin, dekabine
Patient 1016, epithelioid mesothelioma, stage IV, progressive disease on study enrollment, systemic pre-therapies with Alimta and cisplatin, Alimta and carboplatin, Alimta and carboplatin and Avastin, Avastin, Alimta, gemcitabine
Patient 1023, pleuramesothelioma, stage IV, progressive disease on study enrollment, systemic pre-therapies with cisplatin and Alimta
Patient 1024, pleuramesothelioma, stage IV, progressive disease on study enrollment, systemic pre-therapies with cisplatin and Alimta and Avastin, Avastin, carboplatin and Alimta and doxorubicin and dekapine
Oral solution in two dose strengths, ingredients micronized BAY 1000394 (0.2 mg/ml and 4.8 mg/ml), Levomenthol (synonym: 1-menthol, flavouring), macrogol (400) (synonym: polyethylene glycol (400), solubilizer), polysorbate 20 (surfactant)
Dosage twice a day 1.2 mg (patient 1010), 4.8 mg (patient 1016) and 9.6 mg (patients 1023 and 1024), administration protocol 3 days of treatment and 4 days of non-treatment, long-term treatment until disease progression

[5] = patient 3002, squamous cell carcinoma of the oesophagus stage IV, oral solution, twice a day 0.5 mg
[6] = patient 1030, thyroid cancer stage IV, tablet, 5 mg in the morning, 10 mg in the evening, 3 days of treatment and 4 days of non-treatment
[7] = patient 2006, papillary thyroid cancer stage IV, oral solution, twice a day 0.3 mg, 28 days of treatment and 14 days of non-treatment
[8] = patient 1026, cholangiocellular carcinoma stage IV, tablet, twice a day 5 mg
[9] = patient 1010, epithelioid mesothelioma, twice a day 1.2 mg
[10] = patient 1016, epithelioid mesothelioma stage IV, twice a day 4.8 mg
[11] = patient 1023, pleuramesothelioma stage IV, twice a day 9.6 mg
[12] = patient 1024, pleuramesothelioma stage IV, twice a day 9.6 mg

## C[C@@H](O)[C@@H](C)Oc1nc(Nc2ccc([S@](=N)(=O)C3CC3)cc2)ncc1C(F)(F)F [BAY 1000394, (R)—S-cyclopropyl-S-(4-{[4-{[(1R,2R)-2-hydroxy-1-methylpropyl]oxy}-5-(trifluoromethyl)pyrimidin-2-yl]amino}phenyl)sulphoximide]
[1]; [5]
  duration of treatment (until disease progression): more than 2 months
  tumour response according to RECIST 1.1: disease stabilization
[2]; [6]
  duration of treatment (until disease progression): more than 3 months
  tumour response according to RECIST 1.1: disease stabilization
[2]; [7]
  duration of treatment (until disease progression): about 2 months
  tumour response according to RECIST 1.1: disease stabilization
[3]; [8]
  duration of treatment (until disease progression): more than 4 months
  tumour response according to RECIST 1.1: disease stabilization
[4]; [9]
  duration of treatment (until disease progression): about 4 months
  tumour response according to RECIST 1.1: disease stabilization
[4]; [10]
  duration of treatment (until disease progression): more than 3 months
  tumour response according to RECIST 1.1: disease stabilization
[4]; [11]
  duration of treatment (until disease progression): about 2 months
  tumour response according to RECIST 1.1: disease stabilization
[4]; [12]
  duration of treatment (until disease progression): about 2 months
  tumour response according to RECIST 1.1: disease stabilization

## C[C@@H](O)[C@@H](C)Oc1nc(Nc2ccc(S(=N)(=O)C3CC3)cc2)ncc1C(F)(F)F (mixture of isomers) [Compound A, (RS)—S-cyclopropyl-S-(4-{[4-{[(1R,2R)-2-hydroxy-1-methylpropyl]oxy}-5-(trifluoromethyl)pyrimidin-2-yl]amino}phenyl)sulphoximide]
[1]; daily dose of 1 mg divided into two identical dosage units
  treatment outcome in a patient suffering from squamous cell carcinoma of the oesophagus: Disease stabilization
[2]; daily dose of 0.6 mg divided into two identical dosage units, 28 days of treatment and 14 days of non-treatment
  treatment outcome in thyroid cancer patients: Disease stabilization
[2]; daily dose of 15 mg (5 mg in the morning, 10 mg in the evening), 3 days of treatment and 4 days of non-treatment
  treatment outcome in thyroid cancer patients: Disease stabilization
[3]; daily dose of 10 mg divided into two identical dosage units
  treatment outcome in a patient suffering from cholangiocellular carcinoma: Disease stabilization
[4]; daily dose of 2.4 mg, 9.6 mg and 19.2 mg divided into two identical dosage units
  treatment outcome in mesothelioma patients: Disease stabilization
